Source: PubChem BioAssay AID1259407 (Chemical Carcinogenesis Research Information System (CCRIS), 2018)
Activity calls are given as the source filed them. No rule for the calls is given here.

System: CCRIS mutagenicity, Ames/micronucleus/aberration tests
Test: CCRIS mutagenicity studies
[1] = Test System: AMES SALMONELLA TYPHIMURIUM, Strain/Indicator: TA98, Metabolic Activation: NONE, Method: PREINCUBATION
[2] = Test System: AMES SALMONELLA TYPHIMURIUM, Strain/Indicator: TA100, Metabolic Activation: NONE, Method: PREINCUBATION
[3] = Test System: AMES SALMONELLA TYPHIMURIUM, Strain/Indicator: TA1535, Metabolic Activation: NONE, Method: PREINCUBATION

CCO
mutagenic call (Test System: AMES SALMONELLA TYPHIMURIUM, Strain/Indicator: TA97, Metabolic Activation: HAMSTER, LIVER, S-9, AROCLOR 1254 (10%), Method: PREINCUBATION): inactive; negative | mutagenic call (Test System: AMES SALMONELLA TYPHIMURIUM, Strain/Indicator: TA97, Metabolic Activation: HAMSTER, LIVER, S-9, AROCLOR 1254 (30%), Method: PREINCUBATION): inactive; negative | mutagenic call (Test System: AMES SALMONELLA TYPHIMURIUM, Strain/Indicator: TA97, Metabolic Activation: NONE, Method: PREINCUBATION): inactive; negative | mutagenic call (Test System: AMES SALMONELLA TYPHIMURIUM, Strain/Indicator: TA97, Metabolic Activation: RAT, LIVER, S-9, AROCLOR 1254 (10%), Method: PREINCUBATION): inactive; negative | mutagenic call (Test System: AMES SALMONELLA TYPHIMURIUM, Strain/Indicator: TA97, Metabolic Activation: RAT, LIVER, S-9, AROCLOR 1254 (30%), Method: PREINCUBATION): inactive; negative | mutagenic call (Test System: AMES SALMONELLA TYPHIMURIUM, Strain/Indicator: TA98, Metabolic Activation: HAMSTER, LIVER, S-9, AROCLOR 1254 (10 OR 30%), Method: PREINCUBATION): inactive; negative | mutagenic call [1]: inactive; negative | mutagenic call (Test System: AMES SALMONELLA TYPHIMURIUM, Strain/Indicator: TA98, Metabolic Activation: RAT, LIVER, S-9, AROCLOR 1254 (10 OR 30%), Method: PREINCUBATION): inactive; negative | mutagenic call (Test System: AMES SALMONELLA TYPHIMURIUM, Strain/Indicator: TA100, Metabolic Activation: HAMSTER, LIVER, S-9, AROCLOR 1254 (10 OR 30%), Method: PREINCUBATION): inactive; negative | mutagenic call [2]: inactive; negative | mutagenic call (Test System: AMES SALMONELLA TYPHIMURIUM, Strain/Indicator: TA100, Metabolic Activation: RAT, LIVER, S-9, AROCLOR 1254 (10 OR 30%), Method: PREINCUBATION): inactive; negative | mutagenic call (Test System: AMES SALMONELLA TYPHIMURIUM, Strain/Indicator: TA104, Metabolic Activation: HAMSTER, LIVER, S-9, AROCLOR 1254 (10 OR 30%), Method: PREINCUBATION): inactive; negative | mutagenic call (Test System: AMES SALMONELLA TYPHIMURIUM, Strain/Indicator: TA104, Metabolic Activation: NONE, Method: PREINCUBATION): inactive; negative | mutagenic call (Test System: AMES SALMONELLA TYPHIMURIUM, Strain/Indicator: TA104, Metabolic Activation: RAT, LIVER, S-9, AROCLOR 1254 (10 OR 30%), Method: PREINCUBATION): inactive; negative | mutagenic call (Test System: AMES SALMONELLA TYPHIMURIUM, Strain/Indicator: TA1535, Metabolic Activation: HAMSTER, LIVER, S-9, AROCLOR 1254 (10 OR 30%), Method: PREINCUBATION): inactive; negative | mutagenic call [3]: inactive; negative | mutagenic call (Test System: AMES SALMONELLA TYPHIMURIUM, Strain/Indicator: TA1535, Metabolic Activation: RAT, LIVER, S-9, AROCLOR 1254 (10 OR 30%), Method: PREINCUBATION): inactive; negative | mutagenic call (Test System: MOUSE LYMPHOMA, Strain/Indicator: L5178Y (TK+/TK-), Metabolic Activation: NONE, Method: SUSPENSION/PLATE): inactive; negative | mutagenic call (Test System: MOUSE LYMPHOMA, Strain/Indicator: L5178Y (TK+/TK-), Metabolic Activation: RAT, LIVER, S-9, AROCLOR 1254, Method: SUSPENSION/PLATE): inactive; negative

Oc1ccc(ON2P(Oc3ccc(O)cc3)N=P(Oc3ccc(O)cc3)(Oc3ccc(O)cc3)N(Oc3ccc(O)cc3)P2Oc2ccc(O)cc2)cc1 (centres undefined)
mutagenic call (Test System: AMES SALMONELLA TYPHIMURIUM, Strain/Indicator: TA98, Metabolic Activation: NONE, Method: STANDARD PLATE): inactive; negative | mutagenic call (Test System: AMES SALMONELLA TYPHIMURIUM, Strain/Indicator: TA98, Metabolic Activation: RAT, LIVER, S-9, AROCLOR 1254, Method: STANDARD PLATE): inactive; negative | mutagenic call (Test System: AMES SALMONELLA TYPHIMURIUM, Strain/Indicator: TA100, Metabolic Activation: NONE, Method: STANDARD PLATE): inactive; negative | mutagenic call (Test System: AMES SALMONELLA TYPHIMURIUM, Strain/Indicator: TA100, Metabolic Activation: RAT, LIVER, S-9, AROCLOR 1254, Method: STANDARD PLATE): inactive; negative

Cc1c(Br)c(Br)c(Br)c(Br)c1Br
mutagenic call (Test System: AMES SALMONELLA TYPHIMURIUM, Strain/Indicator: TA98, Metabolic Activation: HAMSTER, LIVER, S-9, AROCLOR 1254 (10%), Method: PREINCUBATION): inactive; negative | mutagenic call [1]: inactive; negative | mutagenic call (Test System: AMES SALMONELLA TYPHIMURIUM, Strain/Indicator: TA98, Metabolic Activation: RAT, LIVER, S-9, AROCLOR 1254 (10%), Method: PREINCUBATION): inactive; negative | mutagenic call (Test System: AMES SALMONELLA TYPHIMURIUM, Strain/Indicator: TA100, Metabolic Activation: HAMSTER, LIVER, S-9, AROCLOR 1254 (10%), Method: PREINCUBATION): inactive; negative | mutagenic call [2]: inactive; negative | mutagenic call (Test System: AMES SALMONELLA TYPHIMURIUM, Strain/Indicator: TA100, Metabolic Activation: RAT, LIVER, S-9, AROCLOR 1254 (10%), Method: PREINCUBATION): inactive; negative | mutagenic call (Test System: AMES SALMONELLA TYPHIMURIUM, Strain/Indicator: TA1535, Metabolic Activation: HAMSTER, LIVER, S-9, AROCLOR 1254 (10%), Method: PREINCUBATION): inactive; negative | mutagenic call [3]: inactive; negative | mutagenic call (Test System: AMES SALMONELLA TYPHIMURIUM, Strain/Indicator: TA1535, Metabolic Activation: RAT, LIVER, S-9, AROCLOR 1254 (10%), Method: PREINCUBATION): inactive; negative | mutagenic call (Test System: AMES SALMONELLA TYPHIMURIUM, Strain/Indicator: TA1537, Metabolic Activation: HAMSTER, LIVER, S-9, AROCLOR 1254 (10%), Method: PREINCUBATION): inactive; negative | mutagenic call (Test System: AMES SALMONELLA TYPHIMURIUM, Strain/Indicator: TA1537, Metabolic Activation: NONE, Method: PREINCUBATION): inactive; negative | mutagenic call (Test System: AMES SALMONELLA TYPHIMURIUM, Strain/Indicator: TA1537, Metabolic Activation: RAT, LIVER, S-9, AROCLOR 1254 (10%), Method: PREINCUBATION): inactive; negative

C=C(C)C1CC=C(C=O)CC1 (centres undefined)
mutagenic call (End Point: IN VIVO MICRONUCLEUS, Test System: BONE MARROW POLYCHROMATIC ERYTHROCYTES, Species: MOUSE, Strain/Sex: DDY/MALE, Route: IP): inactive; negative

C[C@]12CC[C@H](O)CC1=CC[C@@H]1[C@@H]2CC[C@]2(C)C(=O)CC[C@@H]12
mutagenic call (Test System: AMES SALMONELLA TYPHIMURIUM, Strain/Indicator: TA102, Metabolic Activation: RAT LIVER S-9, PHENOBARBITAL AND 5,6-BENZOFLAVONE, Method: STANDARD PLATE): inactive; negative | mutagenic call (Test System: AMES SALMONELLA TYPHIMURIUM, Strain/Indicator: TA2638, Metabolic Activation: RAT LIVER S-9, PHENOBARBITAL AND 5,6-BENZOFLAVONE, Method: STANDARD PLATE): inactive; negative | mutagenic call (Test System: E. COLI, Strain/Indicator: WP2 (PKM101), Metabolic Activation: RAT LIVER S-9, PHENOBARBITAL AND 5,6-BENZOFLAVONE, Method: STANDARD PLATE): inactive; negative | mutagenic call (Test System: E. COLI, Strain/Indicator: WP2 UVRA (PKM101), Metabolic Activation: RAT LIVER S-9, PHENOBARBITAL AND 5,6-BENZOFLAVONE, Method: STANDARD PLATE): inactive; negative | mutagenic call (Test System: UDS RAT HEPATOCYTES, Strain/Indicator: THY INCORP (18-20 HR), Metabolic Activation: NONE, Method: LIQUID SCINTILLATION COUNTING): inactive; negative

CNN(C)c1ccn([C@@H]2O[C@H](CO)[C@@H](O)[C@H]2O)c(=O)n1
mutagenic call (Test System: CHINESE HAMSTER V-79, Strain/Indicator: V-79/6-THIOGUANINE, Metabolic Activation: NONE, Method: REPLATING): inactive; negative

c1cnc2c(c1)ccc1ncccc12
mutagenic call (Test System: AMES SALMONELLA TYPHIMURIUM, Strain/Indicator: TA100, Metabolic Activation: RAT, LIVER, S-9, PHENOBARBITAL AND 5,6-BENZOFLAVONE, Method: PREINCUBATION): active; positive

Oc1ccc(Cc2ccc(O)cc2)cc1
mutagenic call (End Point: In vitro micronucleus, Test System: HepG2 cells, Metabolic Activation: None): inactive; negative | mutagenic call (Test System: Ames Salmonella typhimurium, Strain/Indicator: TA98, Metabolic Activation: None, Method: Preincubation): inactive; negative | mutagenic call (Test System: Ames Salmonella typhimurium, Strain/Indicator: TA98, Metabolic Activation: Rat, Liver, S-9, Aroclor 1254, Method: Preincubation): inactive; negative | mutagenic call (Test System: Ames Salmonella typhimurium, Strain/Indicator: TA100, Metabolic Activation: None, Method: Preincubation): inactive; negative | mutagenic call (Test System: Ames Salmonella typhimurium, Strain/Indicator: TA100, Metabolic Activation: Rat, Liver, S-9, Aroclor 1254, Method: Preincubation): inactive; negative | mutagenic call (Test System: Ames Salmonella typhimurium, Strain/Indicator: TA1535, Metabolic Activation: None, Method: Preincubation): inactive; negative | mutagenic call (Test System: Ames Salmonella typhimurium, Strain/Indicator: TA1535, Metabolic Activation: Rat, Liver, S-9, Aroclor 1254, Method: Preincubation): inactive; negative | mutagenic call (Test System: Ames Salmonella typhimurium, Strain/Indicator: TA1537, Metabolic Activation: None, Method: Preincubation): inactive; negative | mutagenic call (Test System: Ames Salmonella typhimurium, Strain/Indicator: TA1537, Metabolic Activation: Rat, Liver, S-9, Aroclor 1254, Method: Preincubation): inactive; negative | mutagenic call (Test System: E. coli, Strain/Indicator: W2 uvrA pKM101, Metabolic Activation: None, Method: Preincubation): inactive; negative | mutagenic call (Test System: E. coli, Strain/Indicator: W2 uvrA pKM101, Metabolic Activation: Rat, Liver, S-9, Aroclor 1254, Method: Preincubation): inactive; negative
